In patent publication US7387778B2, “Therapeutic methods and compositions for the treatment of impaired interpersonal and behavioral disorders” (Institut Pasteur, priority 1999, dated 2008):

Legend:
[1] = test system: male Wistar/AF EOPS rats; test: Behavioral despair test (forced swimming); format: in vivo, rat; conditions: for Immobility period, Test session / Immobility period, Retest session: first 5 minutes; for Immobility period, Test session: test is before any treatment
Procedure: Forty male Wistar/AF EOPS rats (Iffa-Credo Breeding Centre, 69-St-Germain sur l'Arbresle, France), weighing 300 to 320 g, were used. On arrival, the rats were labelled and distributed randomly in pairs into type F polycarbonate cages (48×27×20 cm, U.A.R., 91-Epinay-Sur-Orge, France). The animals were stabled in an air-conditioned animal house, at a temperature of 22-24° C. The rats were given food (M25 croquettes, Ets Piétrement, 77-Provins, France) and drink ad libitum and were subjected to a 12-hour light-darkness cycle.
After one week of familiarization with the laboratory conditions, the rats were weighed and distributed randomly into 3 treatment groups (n=12). The rats of the different groups will all be handled in the same way and under the same conditions.
The behavioral despair test takes place over two sessions: • a 15-minute test session; • a 5-minute retest session, performed 24 hours later.
During the test session, the rat was subjected to forced swimming in a Plexiglas cylinder (20 cm in diameter and 50 cm in height, containing 25 cm of water at 25° C.) and its behavior was recorded over 15 minutes. At the end of the test, the rat was removed from the water, dried gently, treated and then returned to its dwelling cage.
During the retest, 24 hours later, the rat was again placed in the water and its behavior was recorded over 5 minutes.
The recorded variables are the period of immobility during the first 5 minutes of both the test and the retest.
The peptide FG-005 was suspended at a rate of 500 μg per 5 ml of 0.01N acetic acid, and then diluted with PBS to be administered at doses of 50 and 100 μg/kg via the i.v. route into the dorsal caudal vein of the rat, immediately after the test and 300 and 5 minutes before the retest the following day (Table X). 8-OH-DPAT was injected i.p.
A bilateral probability paired t test was used to compare the two periods of immobility of the test with those of the retest in each of the groups. The results are expressed as an average standard error of mean (SEM) (Table XI and FIG. 20). The statistical and graphical processing was performed using Statview5 and DeltaGraph® Pro 3.5 software.

[2] = test system: male rats; conditions: high doses; cited from earlier work
[3] = test system: male Wistar rats; test: Irwin test; format: in vivo, rat; conditions: injected into tail vein, escalating doses
Procedure: An Irwin test was performed on 12 male Wistar rats (Iffa Credo, L'Arbresles, France), weighing 260-280 g. They were housed in groups of 4 in a climate controlled room with a 12 h light:dark cycle (light 8:00 PM-8:00 AM) and had access to food and water ad libitum. After a seven day acclimatization period, the rats were weighed, identified and randomly assigned to one of the four treatment groups. The drug was injected to the tail vein of the rats according to the group dose.
Observations were performed 15, 30, 60 and 120 minutes after administration. Among the most noticeable results are the results concerning the awareness state of the rats. […] Rats injected FG-005 are less stressed as shown by startle response test (FIG. 2), and by the abdominal tone (FIG. 3).

[4] = test system: male Wistar rats; test: Behavior of male rats in the presence of receptive females; format: in vivo, rat
Procedure: Behavior tests were performed on 12 male Wistar rats (Iffa Credo, L'Arbresles, France), weighing 260-280 g. They were housed in groups of 4 in a climate controlled room with a 12-h light:dark cycle and had access to food and water ad libitum. After seven days acclimatization period, the rats were weighed, identified and randomly assigned to one of the four treatment groups. The rats were familiarized once with female rats which had been brought to sexual receptivity by injecting estradiol benzoate for 4 days (5 μg/0.5 ml oil, s.c. once daily). Behavioral testing was performed under blind conditions in a dimlight environment 2 hours after the onset of the dark phase of the light/dark cycle. Behavior was assessed by placing the male rat in a plexiglass cage (50×30×20 cm) five minutes before a receptive female was presented. All of the tests on rats were recorded on a VHS-videotape. The recorded parameters were: number of ejaculations, latency of first mount, latency of first ejaculation, number of mounts, postejaculatory interval, avoidance behavior patterns, awareness of other rats presence, initiation or response to social interaction, interest in other rat, self-care, willingness to enter into relationship. All of the quantitative results were analyzed using the Kruskal-Wallis test followed by the Mann-Whitney U-Test to compare each treated group with the control group. The statistical analyzes were carried out using the Statview 4.1 statistical package.

[5] = test system: male rats with sexually receptive female; test: Dose-response relationship of FG-005 on male rat sexual behavior; format: in vivo; conditions: for total number of mounts with or without intromission, Mean: 45-min observation
Procedure: Effect of increasing concentrations of FG-005 peptide (SMR1-QHNPR) given i.v. on the number of sexual intercourse episodes of male rats with sexually receptive female, was assessed. All of the […] parameters were analyzed using one-way analysis of variance (ANOVA) for the differences between treated groups and followed by the multiple comparison test of Fisher (PLSD Fisher) to compare each group of FG-005-injected rats with the control group (vehicle-injected rats). Nine to ten rats were used for each group and P value of less than 0.005 was considered as significant for both tests.
This is appreciated by the significant dose-dependent increase of sexual interactions (mounts, mounts with intromission and mounts per ejaculation) during (first ejaculation latency and interejaculatory latency) episodes of sexual intercourse.

[6] = test system: male rats; test: First two post ejaculatory intervals (PEI); format: in vivo, rat
Procedure: All quantitative results are statistically analyzed using a Krukal-Wallis test (KWT), as a between-group variable, followed by Mann-Whitney U-test (MWT) to compare the treated group to control one. Friedman test (FT), as within-group variable, was used for repeated measures across the first three ejaculatory series, followed by Wilcoxon (WT). Data are reported as mean ±SEM. For all statistical evaluations, the level of significance was set at p<0.05. All statistical analyses were carried out using the Statview™ 4.5 statistical package (Abacus Concepts, Inc, Berkeley, Calif.).
Masculine sociosexual behaviors other than copulatory acts were measured and analyzed during the two successive post-ejaculatory intervals. Among these are pursuit of the female, sniffing, grooming, running behind the partner in close contact and anogenital exploration (sniffing, licking and grooming the partner). […] Thus, for a similar amount of time in PEI duration compared to controls, the 3 μg/kg-treated rats spent during this interval, 7 to 10 fold more amount of time to pursue and groom the female.

[7] = test system: male Wistar/AF EOPS rats; test: Behavioral despair test (forced swimming); format: in vivo, rat; conditions: 100 mg/kg; difference not statistically significant

Molecule: CCCN(CCC)C1CCc2cccc(O)c2C1 (centres unmarked) [8-OH-DPAT, reference compound]
- Immobility period, Test session ([1]; 0.5 mg/kg i.p. group): 109.20
- Immobility period, Retest session ([1]; 0.5 mg/kg i.p., 1440, 300, 30 min before retest): 31.60
- period of immobility, retest compared with test ([1]; 8-OH-DPAT 0.5 mg/kg i.p.): significantly reduce their period of immobility
- anti-resignation effect ([1]; reference substance, 0.5 mg/kg i.p.): significant anti-resignation effect

Molecule: CC[C@H](C)[C@@H]1NC(=O)[C@H](Cc2ccc(O)cc2)NC(=O)[C@@H](N)CSSC[C@@H](C(=O)N2CCC[C@H]2C(=O)N[C@@H](CC(C)C)C(=O)NCC(N)=O)NC(=O)[C@H](CC(N)=O)NC(=O)[C@H](CCC(N)=O)NC1=O [oxytocin]
- locomotion [2]: decrease locomotion

Molecule: Gln-His-Asn-Pro-Arg (QHNPR; This is a peptide sequence that was designed to achieve therapeutic effects in mammals.) [FG-005, synthesized pentapeptide with N-terminal Glutamine]
- abdominal tone (FIG. 3) [3]: less stressed
- aggressiveness [3]: not associated with an increase of aggressiveness
- finger approach test [3]: increased interest
- startle response test (FIG. 2) [3]: less stressed
- vocalization when third parties approach [3]: increased vocalization
- wire maneuver test [3]: Significant response
- tail pinch test (FIGS. 4-7) ([3]; 15, 30, 60, 120 minutes): less reactivity to nociceptive stimuli
- awareness state / sleep (FIG. 1) ([3]; after 2 hours of tests): much less likely to fall asleep
- Latency of the first mount, Mean ([4]; 3 μg/kg): 93.333 s
- latency of first mounts (in words) ([4]; 3 μg/kg): significantly increased latency
- number of ejaculations in 45 minutes, Mean ([4]; 3 μg/kg): 5.333
- refractory period between the second ejaculation and the next mount, Mean ([4]; 3 μg/kg): 311.333 s
- Latency of the first mount, Mean ([4]; 15 μg/kg): 23.000 s
- number of ejaculations in 45 minutes, Mean ([4]; 15 μg/kg): 4.000
- refractory period between the second ejaculation and the next mount, Mean ([4]; 15 μg/kg): 412.000 s
- Latency of the first mount, Mean ([4]; 30 μg/kg): 13.667 s
- number of ejaculations in 45 minutes, Mean ([4]; 30 μg/kg): 4.667
- refractory period between the second ejaculation and the next mount, Mean ([4]; 30 μg/kg): 373.667 s
- avoidance symptoms during refractory periods ([4]; treated vs control rats): loss of avoidance symptoms
- duration of refractory periods (in words) ([4]; treated vs control rats): shortened
- interest in the other rat after ejaculation ([4]; treated vs non-treated rats): interest is maintained
- number of episodes of intercourse (number of ejaculations in 45 minutes, in words) ([4]; treated vs non-treated rats): significantly increased
- self-care, attention to personal toilet after each penetration ([4]; treated vs non-treated rats): increased
- mean number of mounts per ejaculation ([5]; 0.3 μg/kg i.v.): 20.220
- number of mounts before the first ejaculation, Mean ([5]; 0.3 μg/kg i.v.): 31.111
- number of mounts before the fourth ejaculation (interejaculatory interval), Mean ([5]; 0.3 μg/kg i.v.): 11.500
- number of mounts before the third ejaculation (interejaculatory interval), Mean ([5]; 0.3 μg/kg i.v.): 13.444
- number of mounts with intromission, Mean ([5]; 0.3 μg/kg i.v.): 77.111
- total number of mounts with or without intromission, Mean ([5]; 0.3 μg/kg i.v.): 81.778
- mean number of mounts per ejaculation ([5]; 1 μg/kg i.v.): 26.911
- number of mounts before the first ejaculation, Mean ([5]; 1 μg/kg i.v.): 33.444
- number of mounts before the fourth ejaculation (interejaculatory interval), Mean ([5]; 1 μg/kg i.v.): 19.143
- number of mounts before the third ejaculation (interejaculatory interval), Mean ([5]; 1 μg/kg i.v.): 18.333
- number of mounts with intromission, Mean ([5]; 1 μg/kg i.v.): 90.556
- total number of mounts with or without intromission, Mean ([5]; 1 μg/kg i.v.): 96.667
- first ejaculation latency ([5]; 3 μg/Kg vs vehicle-injected rats): increased significantly
- total number of ejaculations ([5]; 3 μg/Kg, 45 min observation period): lower than that of vehicle-treated rats
- mean number of mounts per ejaculation ([5]; 3 μg/kg i.v.): 36.013
- number of mounts before the first ejaculation, Mean ([5]; 3 μg/kg i.v.): 37.500
- number of mounts before the fourth ejaculation (interejaculatory interval), Mean ([5]; 3 μg/kg i.v.): 24.167
- number of mounts before the third ejaculation (interejaculatory interval), Mean ([5]; 3 μg/kg i.v.): 22.889
- number of mounts with intromission, Mean ([5]; 3 μg/kg i.v.): 97.700
- total number of mounts with or without intromission, Mean ([5]; 3 μg/kg i.v.): 110.100
- third ejaculation latency ([5]; dose-related manner): tended also to increase
- second ejaculation latency ([5]; pronounced effect at 1 and 3 μg/Kg): significant dose-related prolongation
- aggressive impulse behavior ([5]; treated vs control rats): loss of aggressive impulse behavior
- duration of the first PEI ([6]; 1 μg/kg vs control): significantly longer
- duration of the second PEI ([6]; 0.3, 1 and 3 μg/kg): not significantly influenced
- duration of male socio-sexual behaviors during the first and second PEI ([6]; 0.3, 1 and 3 μg/kg vs controls): significantly more time
- duration of male immobility during the first and second PEI ([6]; 0.3, 1 and 3 μg/kg vs vehicle controls): significantly less time
- Immobility period, Retest session ([1]; 50 μg/kg i.v., 1440, 300, 5 min before retest): 141.20 ± 21.28
- period of immobility, retest compared with test ([1]; 50 μg/kg, difference not statistically significant): increase their period of immobility
- Immobility period, Retest session ([1]; 100 μg/kg i.v., 1440, 300, 5 min before retest): 121.50 ± 17.47
- behavioral resignation (antidepressant effect) ([1]; 50 and 100 μg/kg, i.v.): no behavioral resignation
- Immobility period, Test session ([1]; FG-50 group, 50 μg/kg i.v.): 119.00 ± 13.79
- Immobility period, Test session ([1]; FG-100 group, 100 μg/kg i.v.): 138.30 ± 11.03
- period of immobility, retest compared with test [7]: reduce it
